# According to patent US6737383B1, “Herbicidal oxadiazolidines” (priority 1999, dated 2004):
# Tests used:
# [1] = system: giant foxtail; test: Test B pre/postemergence giant foxtail; assay type: in vivo, Setaria faberii
# Procedure, shortened: (§1)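 Test chemicals in a non-phytotoxic solvent mixture with surfactant were sprayed preemergence onto planted seeds and postemergence onto plants 2 to 18 cm tall (1- to 4-leaf stage). After twelve to sixteen days in a greenhouse, injury was visually rated against untreated controls from 0 (no effect) to 10 (complete control).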
# [2] = system: morningglory; test: Test B pre/postemergence morningglory; assay type: in vivo, Ipomoea hederacea
# Procedure, shortened: as §1
# [3] = system: cocklebur; test: Test B pre/postemergence cocklebur; assay type: in vivo, Xanthium strumarium
# Procedure, shortened: as §1
# [4] = system: pigweed; test: Test B pre/postemergence pigweed; assay type: in vivo, Amaranthus retroflexus
# Procedure, shortened: as §1
# [5] = system: surinam grass; test: Test B pre/postemergence surinam grass; assay type: in vivo, Brachiaria decumbens
# Procedure, shortened: as §1
# [6] = system: rape; test: Test B pre/postemergence rape; assay type: in vivo, Brassica napus
# Procedure, shortened: as §1
# [7] = system: duck salad; test: Test B flood test duck salad; assay type: in vivo, Heteranthera limosa
# Procedure, shortened: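 Read-out is a visual response score from 0 (no effect) to 10 (complete control), assigned by comparison with untreated controls. Treatment was applied at the 2-leaf stage, and plants stayed in the greenhouse for twelve to sixteen days before scoring.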
# [8] = system: velvetleaf; test: Test B pre/postemergence velvetleaf; assay type: in vivo, Abutilon theophrasti
# Procedure, shortened: as §1
# [9] = system: purple nutsedge; test: Test B pre/postemergence purple nutsedge; assay type: in vivo, Cyperus rotundus
# Procedure, shortened: as §1
# [10] = system: crabgrass; test: Test B pre/postemergence crabgrass; assay type: in vivo, Digitaria sanguinalis
# Procedure, shortened: as §1
# [11] = system: wheat; test: Test B pre/postemergence wheat; assay type: in vivo, Triticum aestivum
# Procedure, shortened: as §1
# [12] = system: soybean; test: Test B pre/postemergence soybean; assay type: in vivo, Glycine max
# Procedure, shortened: as §1
# [13] = system: sugar beet; test: Test B pre/postemergence sugar beet; assay type: in vivo, Beta vulgaris
# Procedure, shortened: as §1
# [14] = system: bedstraw; test: Test B pre/postemergence bedstraw; assay type: in vivo, Galium aparine
# Procedure, shortened: as §1
# [15] = system: corn; test: Test B pre/postemergence corn; assay type: in vivo, Zea mays
# Procedure, shortened: as §1
# [16] = Postemergence, Rate 62 g/ha, scale 0 to 10, 0 is no effect, 10 is complete control
# [17] = Postemergence, Rate 125 g/ha, scale of 0 to 10 where 0 is no effect and 10 is complete control
# [18] = Postemergence, Rate 250 g/ha, scale of 0 to 10, 0 is no effect, 10 is complete control
# [19] = Postemergence, Rate 500 g/ha, scale of 0 to 10 where 0 is no effect and 10 is complete control
# [20] = Preemergence, Rate 62 g/ha, scale of 0 to 10 where 0 is no effect and 10 is complete control
# [21] = Preemergence, Rate 125 g/ha, scale of 0 to 10 where 0 is no effect and 10 is complete control
# [22] = Preemergence, Rate 250 g/ha, scale 0 to 10 (0 no effect, 10 complete control)
# [23] = Preemergence, Rate 500 g/ha, scale of 0 to 10 where 0 is no effect and 10 is complete control
smiles,measurement,setting,value
C=C(Cl)Cn1c(=O)on(C(=O)N(c2ccc(F)cc2F)C(C)C)c1=O [Compound 634],"Plant response rating, Giant foxtail",[1]; [16],4
same,"Plant response rating, Giant foxtail",[1]; [17],8
same,Giant foxtail plant response rating,[1]; [18],9
same,"Plant response rating, Giant foxtail",[1]; [19],9
same,Giant foxtail plant response rating,[1]; [20],9
same,Giant foxtail plant response rating,[1]; [21],10
same,"Plant response rating, Giant foxtail",[1]; [22],10
same,"Plant response rating, Giant foxtail",[1]; [23],10
same,"Plant response rating, Morningglory",[2]; [16],1
same,"Plant response rating, Morningglory",[2]; [17],1
same,Morningglory plant response rating,[2]; [18],2
same,"Plant response rating, Morningglory",[2]; [19],2
same,Morningglory plant response rating,[2]; [20],0
same,Morningglory plant response rating,[2]; [21],0
same,"Plant response rating, Morningglory",[2]; [22],0
same,"Plant response rating, Morningglory",[2]; [23],0
same,"Plant response rating, Cocklebur",[3]; [16],1
same,"Plant response rating, Cocklebur",[3]; [17],1
same,Cocklebur plant response rating,[3]; [18],2
same,"Plant response rating, Cocklebur",[3]; [19],2
same,Cocklebur plant response rating,[3]; [20],0
same,Cocklebur plant response rating,[3]; [21],0
same,"Plant response rating, Cocklebur",[3]; [22],0
same,"Plant response rating, Cocklebur",[3]; [23],0
same,"Plant response rating, Redroot pigweed",[4]; [16],1
same,"Plant response rating, Redroot pigweed",[4]; [17],2
same,Redroot pigweed plant response rating,[4]; [18],2
same,Redroot pigweed plant response rating,[4]; [20],0
same,Redroot pigweed plant response rating,[4]; [21],4
same,"Plant response rating, Redroot pigweed",[4]; [22],10
same,"Plant response rating, Redroot pigweed",[4]; [23],10
same,"Plant response rating, B. signalgrass",[5]; [16],0
same,"Plant response rating, B. signalgrass",[5]; [17],0
same,B. signalgrass plant response rating,[5]; [18],0
same,"Plant response rating, B. signalgrass",[5]; [19],5
same,B. signalgrass plant response rating,[5]; [20],1
same,B. signalgrass plant response rating,[5]; [21],5
same,"Plant response rating, B. signalgrass",[5]; [22],7
same,"Plant response rating, B. signalgrass",[5]; [23],10
same,"Plant response rating, Rape",[6]; [16],0
same,"Plant response rating, Rape",[6]; [17],0
same,Rape plant response rating,[6]; [18],0
same,"Plant response rating, Rape",[6]; [19],0
same,Rape plant response rating,[6]; [20],0
same,Rape plant response rating,[6]; [21],2
same,"Plant response rating, Rape",[6]; [22],6
same,"Plant response rating, Rape",[6]; [23],7
same,"Plant response rating, Ducksalad (0 to 10 scale, 0 is no effect, 10 is complete control)","[7]; Rate 62 g/ha, flood test species, Pre-emergence, visual evaluation after twelve to sixteen days",0
same,"Ducksalad plant response rating (0 to 10 scale, 0 is no effect, 10 is complete control)","[7]; Rate 125 g/ha, under heading Pre-emergence, flood test species, visual evaluation after twelve to sixteen days",0
same,Ducksalad plant response rating,"[7]; Rate 250 g/ha, Pre-emergence (flood test species), scale 0 to 10, 0 is no effect, 10 is complete control",0
same,Ducksalad plant response rating,"[7]; Rate 500 g/ha, Pre-emergence section of Table B, 0 to 10 scale (0 no effect, 10 complete control)",0
same,"Plant response rating, Velvetleaf",[8]; [16],0
same,"Plant response rating, Velvetleaf",[8]; [17],0
same,Velvetleaf plant response rating,[8]; [18],3
same,Velvetleaf plant response rating,[8]; [20],0
same,Velvetleaf plant response rating,[8]; [21],0
same,"Plant response rating, Velvetleaf",[8]; [22],4
same,"Plant response rating, Velvetleaf",[8]; [23],6
same,"Plant response rating, Nutsedge",[9]; [16],0
same,"Plant response rating, Nutsedge",[9]; [17],0
same,"Plant response rating, Nutsedge",[9]; [19],0
same,Nutsedge plant response rating,[9]; [20],0
same,Nutsedge plant response rating,[9]; [21],0
same,"Plant response rating, Nutsedge",[9]; [22],0
same,"Plant response rating, Nutsedge",[9]; [23],0
same,"Plant response rating, Crabgrass",[10]; [16],0
same,"Plant response rating, Crabgrass",[10]; [17],3
same,Crabgrass plant response rating,[10]; [18],7
same,"Plant response rating, Crabgrass",[10]; [19],9
same,Crabgrass plant response rating,[10]; [20],7
same,Crabgrass plant response rating,[10]; [21],8
same,"Plant response rating, Crabgrass",[10]; [22],10
same,"Plant response rating, Crabgrass",[10]; [23],10
same,"Plant response rating, Wheat",[11]; [16],0
same,"Plant response rating, Wheat",[11]; [17],0
same,Wheat plant response rating,[11]; [18],0
same,Wheat plant response rating,[11]; [20],0
same,Wheat plant response rating,[11]; [21],0
same,"Plant response rating, Wheat",[11]; [22],0
same,"Plant response rating, Wheat",[11]; [23],0
same,"Plant response rating, Soybean",[12]; [16],3
same,"Plant response rating, Soybean",[12]; [17],2
same,Soybean plant response rating,[12]; [18],3
same,Soybean plant response rating,[12]; [20],0
same,Soybean plant response rating,[12]; [21],0
same,"Plant response rating, Soybean",[12]; [22],0
same,"Plant response rating, Soybean",[12]; [23],0
same,"Plant response rating, Sugarbeets",[13]; [16],0
same,"Plant response rating, Sugarbeets",[13]; [17],0
same,Sugarbeets plant response rating,[13]; [18],0
same,Sugarbeets plant response rating,[13]; [20],0
same,Sugarbeets plant response rating,[13]; [21],0
same,"Plant response rating, Sugarbeets",[13]; [22],5
same,"Plant response rating, Sugarbeets",[13]; [23],6
same,"Plant response rating, Bedstraw",[14]; [16],0
same,"Plant response rating, Bedstraw",[14]; [17],0
same,Bedstraw plant response rating,[14]; [18],0
same,Bedstraw plant response rating,[14]; [21],0
same,"Plant response rating, Corn",[15]; [16],0
same,"Plant response rating, Corn",[15]; [17],0
same,Corn plant response rating,[15]; [18],0
same,"Plant response rating, Corn",[15]; [19],0
same,Corn plant response rating,[15]; [20],0
same,Corn plant response rating,[15]; [21],0
same,"Plant response rating, Corn",[15]; [22],0
same,"Plant response rating, Corn",[15]; [23],0
